Patent publication EP0392745B1, “Immunoconjugates and prodrugs and their use in association for drug delivery” (CELLTECH LIMITED, priority 1989, dated 1990)
Like-named read-outs stand apart in the source and are kept apart here.

Tests used:
[1] = tested on: Mouse lymphoma cells, line L5178Y clone 3.7.2.C; experiment: Cell tissue culture cytotoxicity assay of relative drug/prodrug toxicity; type: cell-based
Description: A tissue culture assay using a mouse lymphoma cell line [Phillips (1974), Biochem. Pharmacol. 23, 131-138] was used to determine the relative toxicity of drug and prodrug samples. The cepholosporin - prodrugs tested were those of Example 2,5,6 - 10 and 12.
For compounds of Examples 2, and 7-10 the corresponding non-cephalosporin linked drug was tested. In the case of compounds of Examples 5, 6 and 12 the drug portion of the prodrug was generated in situ in the assay by the addition of the enzyme β-lactamase as indicated below.
Mouse lymphoma cells, line L5178Y clone 3.7.2.C, was used for these studies. This clone was derived from the L5178Y wild-type line and is heterozygous for the thymidine kinase locus. It is widely used for assays of mutation to thymidine analogue resistance (loss of thymidine kinase). Stocks were maintained frozen in liquid nitrogen and recovered 7 days before the start of the study.
The cells were grown in RPMI 1640 medium buffered with 25 mM HEPES, and supplemented with 10% horse serum, 1mM sodium pyruvate, and 0.05% Pluriol (PF 6800 from BASF). In most cases, penicillin (100 iu/ml) and streptomycin (100µg/ml) were also included in the medium. Stock cultures were maintained by subculture into fresh medium every 2-3 days. Incubation was at 37 °C in an atmosphere of 5% CO₂ in air. Under these conditions, the cells grew as a static cell suspension with a population doubling time (cell cycle time) of 10-12 hr.
A growing culture, at a cell density of 1-2 x 10⁶/ml, was diluted with fresh medium to a density of 5 x 10⁵ cells/ml. An appropriate number of universal bottles was prepared with 4.5ml medium and O.5ml cell suspension to give a final cell concentration of 5 x 10⁴ cells/ml. In some tests, the cells were centrifuged and resuspended in Hank's Balanced Salt Solution (HBSS) to allow treatment in a simpler medium. […]
Cell growth was expressed as the number of population doublings (PD) achieved during a given time period ( t hrs ), calculated as follows: [drawing 5]
Growth relative to control ( % G ) was calculated for each treatment as follows: [drawing 6] […]

[2] = tested on: O=C(Cc1cccs1)N[C@@H]1C(=O)N2C(C(=O)O)=C(CSc3ncnc4[nH]cnc34)CS[C@H]12; experiment: purified protein, by the assay type; conditions: 37.0 °C

For `Nc1nc(SCC2=C(C(=O)O)N3C(=O)[C@@H](NC(=O)Cc4cccs4)[C@H]3SC2)c2[nH]cnc2n1` [Example 9, 3-(Guanin-6-ylthiomethyl)-7β-(2-acetamido)-3-cephem-4-carboxylic acid], the “Differential Toxicity (ID50 Prodrug/drug)” value ([1]; mouse lymphoma L5178Y cells) was 13 and the IC50 ([1]; mouse lymphoma L5178Y cells, growth relative to control, read-out: ID50 (the source's name)) was 6.44 µM.

In the case of `Nc1nc2nc[nH]c2c(=S)[nH]1` [Thioguanine (drug), Thioguanine, reference compound], the IC50 ([1]; Mus musculus, L5178Y, read-out: ID50) is reported as 0.53 µM.

With “β-lactamase (E.coli RTEM) (Escherichia coli)” the Km [2] was 138 µM.
